Source: US9586959B2, “Substituted tricyclic heterocycles as histamine 4 receptor inhibitors” (C&C RESEARCH LABORATORIES, priority 2011, dated 2017)

Experiments:
[1] = tested on: compound 48/80-induced itching, ICR mice; assay: Compound 48/80-induced itching model in ICR mice; format: in vivo; conditions: 50 mg/kg oral, compound 48/80 100 μg intradermal, 20 min count
Protocol: Female, ICR mice (8 weeks old) were purchased from OrientBio Co., Ltd. The animals were housed under conditions of controlled temperature (23±3° C.), humidity (50±5%) and lighting with food and water available ad libitum.
The hair was clipped using clippers (8000AD, THRIVE) over the rostral part of the back 24 hours before the experiment under anesthesia with isoflurane. Compound 48/80 (100 μg) were dissolved in saline and a volume of 40 μL injected intradermally into the rostral part of the back. Mice were dosed by orally with either vehicle (20% cyclodextrin in second distilled water) or the compound by orally administration. The Compound (50 mg/kg) dissolved in a vehicle (20% cyclodextrin in second distilled water) and administered orally at a volume of 10 mL/kg.
Mice (n=8-10 per group) were divided into 3 groups (normal group, control group and experimental group). The animals were randomized for similar body weight distribution. A vehicle or the compound was administered 20 minutes before injection of compound 48/80 or saline. Immediately after intradermal injection, the animals were returned to an acrylic cage (approximately 30×30×30 cm, access production) composed of four cells, to which they had been acclimated for at least 1 hour before the experiment, for observation of itch responses. A camera (Samsung, VLUUNV30) was positioned above the mice to record their response. Itch was measured by blinded counting of the number of bouts in the 20 min period immediately after the intradermal injection. A number of scratching was defined as 3 or more individual rapid scratch movements with the hind paws around the injection site (J. Pharmacol. Sci. 2006, 100, 285-288; European J. of Pharmacol. 2002, 448, 175-183). All data were analyzed by using Excel and Prism, and all values are expressed as the mean±S.E.M. The inhibitory effect of compounds is shown as a percentage of the maximal response to histamine (100% control group). Statistical analysis was analyzed using one-way ANOVA with Dunnett test. Values of p<0.05 were considered statistically significant.

[2] = tested on: Dermatophagoides farina-induced atopic dermatitis, NC/Nga mice; assay: Dermatophagoides farina-induced atopic dermatitis NC/Nga mouse model; format: in vivo; conditions: BID, oral, 3 weeks, control group (Df) 9.0
Protocol: Female, NC/Nga mice (3 weeks old, 15-17 g) were purchased from Central Lab. Animal Inc. The animals were housed in conditions of controlled temperature (23±3° C.), humidity (50±5%) and lighting with food and water available ad libitum.
The hair of back of the mice was shaved with clipper, and the remaining hair was removed completely using shaving cream. For barrier disruption, 150 μL of 4% sodium dodecyl sulfate (SDS) was applied to the shaved back skin The Df ointment (100 mg/mouse) was applied twice a week for 3 weeks. The compound were administered orally twice a day in the morning and afternoon for 3 weeks, and then the severity of dermatitis was evaluated on days 2, 7, 10, 14 and 21. The development of (1) erythema/haemorrhage, (2) scarring/dryness, (3) oedema, (4) excoriation/erosion was scored as 0 (none), 1 (mild), 2 (moderate) and 3 (severe). The total skin score was defined as the sum of the individual scores. (Scandinavian Journal of Immunol. 2011, 73, 536-545). Statistical analysis was analyzed using one-way ANOVA with Dunnett test. Values of p<0.05 were considered statistically.

| SMILES | Number of scratching (% change from control group) [1] | Scoring of Skin lesions (day 21) ([2]; 25 mg/kg) | Scoring of Skin lesions (day 21) ([2]; 50 mg/kg) |
| --- | --- | --- | --- |
| CNC1CN(c2nc3ncc(I)cc3n3cnnc23)C1 [Compound 48, 1-(8-Iodopyrido[2,3-e][1,2,4]triazolo[4,3-a]pyrazin-4-yl)-N-methylazetidin-3-amine] | 30.3% | – | – |
| CNC1CN(c2nc3ncc(Cl)cc3n3cnnc23)C1 [Compound 18, 1-(8-Chloropyrido[2,3-e][1,2,4]triazolo[4,3-a]pyrazin-4-yl)-N-methylazetidin-3-amine] | 50.9^1% | – | – |
| CN1CCN(c2nc3ncc(Cl)cc3n3cnnc23)CC1 [Compound 4, 8-Chloro-4-(4-methylpiperazin-1-yl)pyrido[2,3-e][1,2,4]triazolo[4,3-a]pyrazine] | 49.6^1% | – | – |
| CNC1CN(c2nc3ncc(Br)cc3n3cnnc23)C1 [Compound 24, 1-(8-Bromopyrido[2,3-e][1,2,4]triazolo[4,3-a]pyrazin-4-yl)-N-methylazetidin-3-amine] | 47.9^1% | 7.2 | 4.4^1 |
| CNC1CN(c2nc3ncc(Br)cc3n3nnnc23)C1 [Compound 95, 1-(8-Bromopyrido[2,3-e]tetrazolo[1,5-a]pyrazin-4-yl)-N-methylazetidin-3-amine] | 93.6^1% | – | – |
